Columns and labels:
HEK-N/F cells = assay: Protection of cells from oxidative damage induced by t-butylhydroperoxide; assay type: cell-based, human; conditions: 1.5 mM t-butylhydroperoxide 3 hours; for TBARS (pmol/mg protein): compound 50.0 µg/ml
Description: t-butylhydroperoxide is metabolized into a free radical intermediate as it comes in a cell, so that it causes lipid peroxidation, resulting in cell damage. This phenomenon is similar to that caused by oxidataive stress accumulated in cells and tissues. […] HEK-N/F, an epidermal cell line of a newborn baby, was treated with 1.5 mM of t-butylhydroxyperoxide for 3 hours.

rat brain homogenates = assay: Lipid peroxidation inhibitory activity (Fe2+/ascorbic acid, TBA method); conditions: Table 4
[1] = Nitric oxide scavenging activity; assay type: biochemical; design: Nitric oxide scavenging activity (%): concentration or dose not given beside the values
[2] = DPPH radical scavenging activity; assay type: biochemical; conditions: for DPPH radical scavenging activity IC50: Table 3
Description: In order to extract an effective ingredient having an anti-oxidant activity from Cercis chinensis, an experiment was performed following the procedure represented in a schematic diagram of FIG. 1. Particularly, 1 kg of leaves and stems of Cercis chinensis, dried in shadow, were grinded to powder using a pulverizer, which was extracted by ethanol (EtOH) at room temperature twice at intervals of two weeks. For the extraction, ethanol solutions were prepared by adding ethanol gradually, 10% at a time, from 0% to 100%. The prepared ethanol solutions were used for the extraction. […] But, it looses absorbance when being scavenged. Based on that point, an anti-oxidant activity can be measured using DPPH. […] Then, each solution was distributed into a 96 well plate by 10 μl each, into which 190 μl of DPPH(Sigma, St. Louis, Mo, USA) solution whose ethanol concentration was 2×10^−4 M/ml was added. The plate was just left at room temperature for 30 minutes. Finally, OD517 was measured at 517 nm. For a control, DMSO was added instead of the sample, and changes of optical density were investigated. […] DDPH Radical Scavenging Activity (%)=(Acontrol−Asample)/(Acontrol)×100 <Mathematica Formula 1>
Acontrol: Optical density of control group (sample was not added),
Asample: Optical density of experimental group (sample was added).
In order to identify a fraction having an anti oxidant activity among hexane Fr, EtOAc Fr and BuOH Fr obtained above, a DPPH radical scavenging activity was measured using each extract of each fraction following the method used above. At this time, vitamin E, known to have high DPPH radical scavenging activity, was used as a comparing group.
At this time, BHA (tert-butyl-4 hydroxyanisole) and α-tocopherol, synthetic anti-oxidant agents, were used as positive controls.

[3] = Hydroxyl radical scavenging activity (deoxyribose/TBA, method of Halliwell); assay type: biochemical; conditions: for Hydroxyl radical scavenging activity (%): 10 μg of sample, total volume 1 ml
Description: Hydroxyl radical (HO.) is generated by the reaction of a metal ion or a superoxide radical. Owing to its strong reactivity, hydroxyl radical causes oxidative damages to DNA, protein and lipid in vivo. Nitric oxide (NO.) is reacted with a superoxide radical to generate a peroxy nitrite (ONOO—), also having strong reactivity. […] Particularly, each compound was mixed with 10 μg of a sample dissolved in DMSO, phosphate buffer (20 mM, pH 7.4) 5.6 mM deoxyribose, 0.1 mM FeCl3, 1 mM H2O2 and 0.1 mM ascorbic acid, making total volume 1 ml, which was then reacted at 37° C. for 60 minutes. 250 μl of 20% TCA and 250 μl of 1% TBA solution (dissolved in 50 mM NaOH) were added to the reaction solution, followed by thermal reaction at 95° C. for 5 minutes. After completing the reaction, OD532 was measured. Hydroxyl radical scavenging activity was calculated by the below
<Mathematical Formula 3>. BHA and α-tocopherol were used for a positive control. Hydroxyl Radical Scavenging Activity (%)=(Acontrol−Asample)/(Acontrol−Ablank)×100 <Mathematical Formula 3>
Acontrol: Optical density of control group well (sample was not added),
Asample: Optical density of experimental group well (sample was added),
Ablank: Optical density of well not added with sample, TCA and TBA

[4] = Superoxide radical scavenging activity (xanthine/xanthine oxidase, NBT); assay type: biochemical; conditions: Table 6
Description: Superoxide radical (O^2−) itself has a little reactivity, but is easily changed into H2O2 that generates hydroxyl radical having strong reactivity or is reacted with nitric oxide (NO.) to generate peroxy nitrite (ONOO^−) having strong reactivity, too. Thus, it might be a reason for oxidation of SH-group, nitration of protein tyrosine, lipid peroxidation and DNA damage. […] Basically, measurement of superoxide radical scavenging activity was performed by investigating the activity of superoxide dismutase (SOD), an enzyme scavenging superoxide by dismutation of the same. In the present invention, an activity of a sample to inhibit superoxide production by the enzyme reaction of xanthine/xanthine oxidase and its another activity to inhibit reaction (NBT+20^2−→NBTH2+2O2) generating formazan by reduction of nitro blue tetrazolium (referred as ‘NBT’ hereinafter) were measured. Particularly, wells of a 96-well plate were supplemented with 50 μl of 4 mM xanthine (Sigma), 50 μl of […] NBT (Sigma), 50 μl of 50 mM phosphate buffer (pH 7.8, 1 mM EDTA) and 10 μl of each sample, into which 40 μl of xanthine oxidase was added to induce a reaction. After the reaction was completed, each reaction solution was collected as scheduled, and OD550 was measured with an ELISA reader. […] Superoxide Radical Scavenging Activity (%)=(Acontrol−Asample)/(Acontrol−Ablank)×100 <Mathematical Formula 4> […]

Row | Compound | Cell survival rate (%) (HEK-N/F cells) | TBARS (pmol/mg protein) (HEK-N/F cells) | Lipid Peroxidation Inhibitory Activity IC50 (rat brain homogenates) [µg/mL] | Nitric oxide scavenging activity (%) [1] [%] | Nitric oxide scavenging activity (in words) [1] | DPPH radical scavenging activity IC50 [2] [µg/mL] | Hydroxyl radical scavenging activity (in words) [3] | Hydroxyl radical scavenging activity (%) [3] [%] | Superoxide radical scavenging activity IC50 [4] [µg/mL] | DPPH radical scavenging activity (in words) [2] | DPPH radical scavenging IC50 ([2]; fractions of the 60% ethanol extract) [µg/mL]
1 | O=C(/C=C/c1ccc(O)cc1)c1ccc(O)cc1O [Chemical Formula 1, isoliquiritigenin] | 13.9 ± 12.6 | 5118.1 ± 410.5 | 3.33 ± 0.50 | – | – | – | – | – | – | – | –
2 | (−)-epicatechin-3-O-gallate [Chemical Formula 17] | 49.4 ± 6.4 | 1007.3 ± 95.2 | 2.90 ± 0.06 | 25.4 ± 1.2 | comparatively high nitric oxide scavenging activity | 6.8 ± 0.5 | remarkably higher hydroxyl radical scavenging activities | 39.9 | 11.9 ± 2.1 | – | –
3 | CCOC(=O)c1cc(O)c(O)c(O)c1 [Chemical Formula 8, ethyl gallate] | 43.1±4.1 | 1115.6 ± 96.2 | 7.01 ± 0.62 | 33.4 ± 2.1 | – | 7.0 ± 1.0 | remarkably higher hydroxyl radical scavenging activities | 44.0 | 15.8 ± 1.6 | – | –
4 | COc1cc(C2c3c(cc(OC)c(O)c3OC)CC(CO)C2CO[C@@H]2O[C@H](CO)[C@@H](O)[C@H](O)[C@H]2O)cc(OC)c1O (single isomer, unassigned; (+)) [Chemical Formula 20, (+)-lyoniresiol 3a-O-β-D-glucopyranoside] | 12.9 ± 2.1 | 7635.7 ± 631.2 | 39.10 ± 3.11 | 0.8 ± 0.8 | – | 42.6 ± 3.1 | – | 8.1 | >100 | – | –
5 | C[C@@H]1O[C@@H](Oc2c(-c3ccc(O)cc3)oc3cc(O)cc(O)c3c2=O)[C@H](O)[C@H](O)[C@H]1O [Chemical Formula 10, afzelin] | 16.8 ± 1.3 | 3295.1 ± 304.5 | – | – | – | – | – | – | – | – | –
6 | Cc1c(C)c2c(c(C)c1O)CC[C@@](C)(CCC[C@H](C)CCC[C@H](C)CCCC(C)C)O2 [α-tocopherol, reference compound] | – | – | 6.61 ± 0.95 | – | – | 25.4 ± 0.9 | – | 0.8 | – | – | –
7 | Oc1cc(O)c2c(c1)O[C@H](c1ccc(O)c(O)c1)[C@@H](O)C2 [Chemical Formula 16, (+)-catechin] | 24.5 ± 1.9 | 1912.4 ± 112.0 | 4.71 ± 0.26 | 16.9 ± 1.1 | comparatively high nitric oxide scavenging activity | 15.6 ± 0.8 | – | 12.7 | 16.5 ± 2.0 | strong radical scavenging activity | –
8 | tert-butyl-4-hydroxyanisole [BHA, reference compound] | – | – | 0.11 ± 0.02 | – | – | 15.3 ± 0.6 | – | 15.6 | 48.8 ± 2.5 | – | –
9 | COc1cc(C2c3c(cc(OC)c(O)c3OC)CC(CO)C2CO[C@@H]2OC[C@@H](O)[C@H](O)[C@H]2O)cc(OC)c1O (single isomer, unassigned; (-)) [Chemical Formula 19, (−)-lyoniresinol 3a-O-β-D-xylopyranoside] | 13.5 ± 2.0 | 5981.1 ± 412.6 | 37.42 ± 2.06 | 0.8 ± 0.6 | – | 45.7 ± 4.0 | – | 7.3 | >100 | – | –
10 | Oc1ccc(C=Cc2cc(O)cc(O)c2)cc1 [Chemical Formula 4, resveratrol] | 18.1 ± 1.6 | 2792.4 ± 259.1 | 0.89 ± 0.10 | – | – | – | – | – | – | – | –
11 | COc1cc(-c2oc3cc(O)cc(O)c3c(=O)c2O[C@@H]2O[C@H](CO[C@@H]3O[C@@H](C)[C@H](O)[C@@H](O)[C@H]3O)[C@@H](O)[C@H](O)[C@H]2OC(=O)c2cc(O)c(O)c(O)c2)cc(OC)c1O [Chemical Formula 15, syringetin-3-O-(2″-O-galloyl)-rutinoside] | – | – | 10.10 ± 1.02 | 14.1 ± 1.4 | – | 29.2 ± 1.8 | – | 16.4 | 37.1 ± 2.0 | – | –
12 | C[C@@H]1O[C@@H](Oc2c(-c3ccc(O)c(O)c3)oc3cc(O)cc(O)c3c2=O)[C@H](O)[C@H](O)[C@H]1O [Chemical Formula 11, quercitrin] | – | 2217.2 ± 200.3 | – | – | – | – | – | – | – | – | –
13 | vitamin E [reference compound] | – | – | – | – | – | – | – | – | – | – | 24.9
14 | O=C1C[C@@H](c2ccc(O)cc2)Oc2cc(O)ccc21 [Chemical Formula 3, liquiritigenin] | 12.1 ± 1.0 | 8255.1 ± 576.4 | 6.05 ± 0.99 | – | – | >50 | – | 3.2 | 59.2 ± 3.8 | – | –
15 | O=C(O)c1cc(O)c(O)c(O)c1 [Chemical Formula 6, gallic acid] | 41.5±3.1 | 1245.7 ± 112.4 | 6.80 ± 0.63 | 25.0 ± 2.0 | – | 5.1 ± 0.4 | – | 33.6 | – | – | –
16 | O=C(O)/C=C/c1ccc(O)c(O)c1 [Caffeic acid, caffeic acid, reference compound] | – | – | – | – | – | – | – | – | 11.0 ± 1.8 | – | –
17 | COc1ccc(/C=C/C(=O)c2ccc(O)cc2O)cc1 [Chemical Formula 2, 2′,4′-dihydroxy-4-methoxychalcone] | 16.2 ± 3.2 | 3449.7 ± 305.8 | 12.81 ± 1.86 | – | – | >50 | – | 4.5 | 49.8 ± 3.1 | – | –

Reference: patent publication US7763287B2, “Extract of Cercis chinensis having anti-oxidant activity and anti-aging activity, and cosmetical composition containing the extract for anti-oxidation, skin-aging protection and wrinkle improvement” (Hankook Pharm. Co., Inc., priority 2002, dated 2010)
